Assay results reported in patent US9693556B2, “Herbicidal pyridazinone derivatives” (SYNGENTA LIMITED, priority 2011, dated 2017).

Legend:
Assay type in all cases: in vivo
[1] = test system: Ipomoea hederacea (IPOHE); assay: Post-emergence herbicidal glasshouse test on Ipomoea hederacea; settings: post-emergence; 1000 g/h; evaluated after 13 days
Outline: (§1)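 Application rate 1000 g/h, formulated in acetone/water (50:50) with 0.5% Tween 20 and sprayed onto pots sown 1 day (pre-emergence) or 8 days (post-emergence) earlier. Evaluation at 13 days rated damage from 1 (0-19%) to 5 (80-100%).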

[2] = test system: Echinochloa crus-galli (ECHCG); assay: Pre-emergence herbicidal glasshouse test on Echinochloa crus-galli; settings: pre-emergence; 1000 g/h; evaluated after 13 days
Outline: as §1

Setaria faberi (SETFA) [3] = assay: Pre-emergence herbicidal glasshouse test on Setaria faberi; settings: pre-emergence; 1000 g/h; evaluated after 13 days
Outline: as §1

[4] = test system: Alopecurus myosuroides (ALOMY); assay: Pre-emergence herbicidal glasshouse test on Alopecurus myosuroides; settings: pre-emergence; 1000 g/h; evaluated after 13 days
Outline: as §1

[5] = test system: Amaranthus retoflexus (AMARE); assay: Pre-emergence herbicidal glasshouse test on Amaranthus retoflexus; settings: pre-emergence; 1000 g/h; evaluated after 13 days
Outline: as §1

[6] = test system: Ipomoea hederacea (IPOHE); assay: Pre-emergence herbicidal glasshouse test on Ipomoea hederacea; settings: pre-emergence; 1000 g/h; evaluated after 13 days
Outline: as §1

Solanum nigrum (SOLNI) [7] = assay: Post-emergence herbicidal glasshouse test on Solanum nigrum; settings: post-emergence; 1000 g/h; evaluated after 13 days
Outline: as §1

[8] = test system: Alopecurus myosuroides (ALOMY); assay: Post-emergence herbicidal glasshouse test on Alopecurus myosuroides; settings: post-emergence; 1000 g/h; evaluated after 13 days
Outline: as §1

[9] = test system: Echinochloa crus-galli (ECHCG); assay: Post-emergence herbicidal glasshouse test on Echinochloa crus-galli; settings: post-emergence; 1000 g/h; evaluated after 13 days
Outline: as §1

[10] = test system: Amaranthus retoflexus (AMARE); assay: Post-emergence herbicidal glasshouse test on Amaranthus retoflexus; settings: post-emergence; 1000 g/h; evaluated after 13 days
Outline: as §1

Setaria faberi (SETFA) [11] = assay: Post-emergence herbicidal glasshouse test on Setaria faberi; settings: post-emergence; 1000 g/h; evaluated after 13 days
Outline: as §1

Solanum nigrum (SOLNI) [12] = assay: Pre-emergence herbicidal glasshouse test on Solanum nigrum; settings: pre-emergence; 1000 g/h; evaluated after 13 days
Outline: as §1

| SMILES | POST Application IPOHE herbicidal damage (five point scale) [1] | PRE Application ECHCG herbicidal damage (five point scale) [2] | PRE Application SETFA herbicidal damage (five point scale) (Setaria faberi (SETFA) [3]) | PRE Application ALOMY herbicidal damage (five point scale) [4] | PRE Application AMARE herbicidal damage (five point scale) [5] | PRE Application IPOHE herbicidal damage (five point scale) [6] | POST Application SOLNI herbicidal damage (five point scale) (Solanum nigrum (SOLNI) [7]) | POST Application ALOMY herbicidal damage (five point scale) [8] | POST Application ECHCG herbicidal damage (five point scale) [9] | POST Application AMARE herbicidal damage (five point scale) [10] | POST Application SETFA herbicidal damage (five point scale) (Setaria faberi (SETFA) [11]) | PRE Application SOLNI herbicidal damage (five point scale) (Solanum nigrum (SOLNI) [12]) |
| --- | --- | --- | --- | --- | --- | --- | --- | --- | --- | --- | --- | --- |
| CC(C)(C)n1ncc(-c2c(Cl)cccc2Cl)c(O)c1=O [Compound 1.133] | 2 (2=20-39% damage) | 1 (1=0-19% damage) | 1 (1=0-19% damage) | 1 (1=0-19% damage) | 1 (1=0-19% damage) | 1 (1=0-19% damage) | 2 (2=20-39% damage) | 1 (1=0-19% damage) | 3 (3=40-59% damage) | 1 (1=0-19% damage) | 1 (1=0-19% damage) | 1 (1=0-19% damage) |
| Cn1ncc(-c2cccn(-c3cccc(F)c3)c2=O)c(O)c1=O [Compound 1.148] | 3 (3=40-59% damage) | 1 (1=0-19% damage) | 1 (1=0-19% damage) | 1 (1=0-19% damage) | 1 (1=0-19% damage) | 2 (2=20-39% damage) | 3 (3=40-59% damage) | 1 (1=0-19% damage) | 2 (2=20-39% damage) | 2 (2=20-39% damage) | 4 (4=60-79% damage) | 1 (1=0-19% damage) |
| Cn1nc([N+](=O)[O-])c(-c2ccc(C(F)(F)F)cc2S(C)(=O)=O)c(O)c1=O [Compound 2.022] | 5 (5=80-100% damage) | 5 (5=80-100% damage) | 4 (4=60-79% damage) | 5 (5=80-100% damage) | 5 (5=80-100% damage) | 5 (5=80-100% damage) | 5 (5=80-100% damage) | 5 (5=80-100% damage) | 5 (5=80-100% damage) | 5 (5=80-100% damage) | 5 (5=80-100% damage) | 5 (5=80-100% damage) |
| CCCn1ncc(-c2ccc(S(C)(=O)=O)c(C3=NOCC3)c2Cl)c(O)c1=O [Compound 1.125, 5-[2-chloro-3-(4,5-dihydroisoxazol-3-yl)-4-methylsulfonyl-phenyl]-4-hydroxy-2-propyl-pyridazin-3-one] | 5 (5=80-100% damage) | 5 (5=80-100% damage) | 5 (5=80-100% damage) | 4 (4=60-79% damage) | 5 (5=80-100% damage) | 1 (1=0-19% damage) | 5 (5=80-100% damage) | 5 (5=80-100% damage) | 5 (5=80-100% damage) | 5 (5=80-100% damage) | 5 (5=80-100% damage) | 4 (4=60-79% damage) |
| COCCn1cccc(-c2cnn(C)c(=O)c2O)c1=O [Compound 9.009] | 3 (3=40-59% damage) | 1 (1=0-19% damage) | 1 (1=0-19% damage) | 1 (1=0-19% damage) | 1 (1=0-19% damage) | 1 (1=0-19% damage) | 5 (5=80-100% damage) | 2 (2=20-39% damage) | 3 (3=40-59% damage) | 4 (4=60-79% damage) | 3 (3=40-59% damage) | 1 (1=0-19% damage) |
